The source of these data is patent publication US20160355530A1, “HEPATITIS C INHIBITORS AND USES THEREOF” (AbbVie Inc., priority 2010, published 2016).

What is called EC50 is the midpoint of the concentration-response curve. Broadly, the IC50 is the concentration needed to halve the response being measured.

SMILES strings stand for the structures. Read-outs that look alike come from different tables or passages of the source.

The test system of test [1] is HCV 1b-BB7 subgenomic replicon. The test can be described thus: microbe, parasite or virus in culture. The test is classed as cell-based, HCV genotype 1b. Conditions: Hepatitis C virus, stable replicon. (A replicon is a self-replicating genome or part of one, used to study replication in cells.)
Test [2] deals with HCV 1a-H77 subgenomic replicon. Briefly: microbe, parasite or virus in culture. The test is classed as cell-based, HCV genotype 1a. As to conditions: Hepatitis C virus, stable replicon.
The target in test [3] is T1, HCV NS5B polymerase 1a-H77-C316Y (Hepatitis C virus genotype 1a, UniProt P27958, C2736Y).
T1 construct: six-histidine tag; made in house; host or cells: E. coli
Briefly: biochemical. On the set-up: species or system HCV genotype 1a. A digest of the protocol: (§1)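 E. coli-expressed NS5B (residues 1-570, His-tagged) transcribed a 2.1 kb HCV 1b negative-strand 3′-end RNA template (5 nM) with 20 μM CTP, 20 μM ATP and 0.284 μM [3H]UTP for 3 h at 30° C. Spermine-precipitated RNA was filter-captured and counted by scintillation; IC50 from nonlinear regression.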

For test [4], the target named is T2, HCV NS5B polymerase 1a-H77 (Hepatitis C virus genotype 1a, UniProt P27958).
T2 construct: six-histidine tag; made in house; host or cells: E. coli
The test can be described thus: biochemical. The arrangement: species or system HCV genotype 1a. As to conditions: enzyme, strain 1a H77; read-out: HCV Polymerase Strain 1a H77 IC50. In short, it runs like this: as §1

Test [5] has as its system HCV NS5B polymerase 1a-H77-C316Y. Briefly: biochemical. As to conditions: ratio of enzyme IC50s, 1a H77-C316Y / 1a H77. On the set-up: species or system HCV genotype 1a. In short, it runs like this:
as §1

Test [6] addresses T3, HCV NS5B polymerase 1b BK strain (Hepatitis C virus genotype 1b, UniProt P26663).
T3 construct: six-histidine tag; made in house; host or cells: E. coli
The test can be described thus: HCV NS5B polymerase enzymatic inhibition assay, strain 1b BK. The test is classed as biochemical. Conditions: enzyme, strain 1b BK; read-out: HCV Polymerase Strain 1b BK IC50. In short, it runs like this:
as §1

The mark [7] stands for this setting: strain 1b BB7, 5% FBS + 40% human plasma, read-out: 1b BB7 5% FBS + 40% Human Plasma EC50.
[8] abbreviates: strain 1b BB7, 5% FBS, no human plasma, read-out: 1b BB7 5% FBS EC50.
[9] abbreviates: strain 1b BB7, 5% FBS, read-out: 1b BB7 5% FBS EC50.
The mark [10] stands for this setting: 5% FBS, absence of human plasma, read-out: Stable Replicon 1a H77 5% FBS EC50.
Setting [11] is: strain 1a H77, 5% FBS + 40% human plasma, read-out: 1a H77 5% FBS + 40% Human Plasma EC50.
Setting [12] is: strain 1a H77, 5% FBS, no human plasma, read-out: 1a H77 5% FBS EC50.
[13] abbreviates: strain 1a H77, 5% FBS, read-out: 1a H77 5% FBS EC50.

T3 sequence (P26663 2420-2989): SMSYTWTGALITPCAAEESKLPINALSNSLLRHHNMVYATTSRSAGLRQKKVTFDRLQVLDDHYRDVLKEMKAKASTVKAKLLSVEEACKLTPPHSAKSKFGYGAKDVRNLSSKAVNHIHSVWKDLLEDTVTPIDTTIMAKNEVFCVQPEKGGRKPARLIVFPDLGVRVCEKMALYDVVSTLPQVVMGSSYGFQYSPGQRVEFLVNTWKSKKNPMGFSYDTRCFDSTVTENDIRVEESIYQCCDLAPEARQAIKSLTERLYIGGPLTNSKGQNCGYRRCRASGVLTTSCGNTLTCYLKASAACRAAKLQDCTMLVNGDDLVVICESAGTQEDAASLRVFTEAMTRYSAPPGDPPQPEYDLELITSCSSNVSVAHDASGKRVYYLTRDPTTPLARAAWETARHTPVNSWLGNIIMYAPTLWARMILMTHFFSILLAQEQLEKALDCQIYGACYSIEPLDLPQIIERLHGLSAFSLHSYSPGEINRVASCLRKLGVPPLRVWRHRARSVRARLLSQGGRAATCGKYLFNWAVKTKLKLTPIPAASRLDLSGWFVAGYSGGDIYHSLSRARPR
T2 sequence (P27958 2421-2990): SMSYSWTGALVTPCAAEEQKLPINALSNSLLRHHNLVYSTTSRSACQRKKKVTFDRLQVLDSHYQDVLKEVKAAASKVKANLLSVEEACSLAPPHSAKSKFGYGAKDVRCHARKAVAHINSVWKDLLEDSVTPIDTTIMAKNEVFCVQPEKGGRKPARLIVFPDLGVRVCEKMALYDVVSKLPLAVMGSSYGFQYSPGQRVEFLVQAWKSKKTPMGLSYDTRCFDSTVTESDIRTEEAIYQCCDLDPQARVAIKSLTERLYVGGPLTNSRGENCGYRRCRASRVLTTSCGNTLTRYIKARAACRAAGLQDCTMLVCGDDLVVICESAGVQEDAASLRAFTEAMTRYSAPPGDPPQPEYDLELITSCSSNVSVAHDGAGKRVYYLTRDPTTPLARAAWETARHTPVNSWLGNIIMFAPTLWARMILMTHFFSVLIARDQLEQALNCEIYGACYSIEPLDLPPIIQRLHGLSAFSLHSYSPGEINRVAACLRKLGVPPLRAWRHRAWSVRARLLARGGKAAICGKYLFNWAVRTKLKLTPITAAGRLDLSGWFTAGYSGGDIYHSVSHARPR
T1 sequence (P27958 2421-2990 C2736Y): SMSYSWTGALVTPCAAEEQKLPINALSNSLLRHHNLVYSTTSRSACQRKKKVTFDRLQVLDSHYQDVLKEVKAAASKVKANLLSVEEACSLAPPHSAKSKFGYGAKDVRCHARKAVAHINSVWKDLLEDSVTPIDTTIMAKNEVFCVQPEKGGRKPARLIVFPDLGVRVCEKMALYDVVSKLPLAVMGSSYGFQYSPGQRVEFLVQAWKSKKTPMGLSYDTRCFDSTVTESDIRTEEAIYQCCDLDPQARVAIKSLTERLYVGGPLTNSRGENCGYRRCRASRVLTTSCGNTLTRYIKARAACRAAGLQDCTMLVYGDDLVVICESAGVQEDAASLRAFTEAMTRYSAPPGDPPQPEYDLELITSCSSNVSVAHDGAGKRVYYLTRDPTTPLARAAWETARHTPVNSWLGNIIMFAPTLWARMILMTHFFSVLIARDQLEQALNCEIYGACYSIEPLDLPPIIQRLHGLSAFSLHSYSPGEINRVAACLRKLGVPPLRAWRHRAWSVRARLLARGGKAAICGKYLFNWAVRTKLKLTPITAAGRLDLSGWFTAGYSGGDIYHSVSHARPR

Take `CC(C)(O)C(=O)CCN(c1cc2oc(-c3ccc(F)cc3)c(-c3ncc[nH]3)c2cc1C1CC1)S(C)(=O)=O` [Example 106, N-[5-cyclopropyl-2-(4-fluorophenyl)-3-(1H-imidazol-2-yl)-1-benzofuran-6-yl]-N-(4-hydroxy-4-methyl-3-oxopentyl)methanesulfonamide]: the concentration giving a half-maximal response (EC50) in test [1] (setting [7]) turned out to be 221 nM; in test [1] (setting [8]) it was 27.3 nM; in test [1] (setting [9]), 27.3 nM; in test [2] (setting [10]), 54.4 nM; in test [2] (setting [11]), 915 nM; in test [2] (setting [12]), 54.4 nM. Further, the 50% effective concentration (EC50) in test [2] (setting [13]) is 54.4 nM. Also, the concentration for half-maximal inhibition (IC50) was determined as 101 nM in test [3], 7.3 nM in test [4] and 19 nM in test [6]. Further, the “C316Y/1a Fold Resistance” value in test [5] is 14 fold.
Take `COc1ccc(CN(c2cc3oc(-c4ccc(F)cc4)c(-c4nc(Cl)c[nH]4)c3cc2C2CC2)S(C)(=O)=O)cc1` [Example 159, N-[3-(4-chloro-1H-imidazol-2-yl)-5-cyclopropyl-2-(4-fluorophenyl)-1-benzofuran-6-yl]-N-(4-methoxybenzyl)methanesulfonamide]: the half-maximal effective concentration (EC50) in test [1] (setting [7]) is 10000 nM; in test [1] (setting [8]), 544 nM; in test [1] (setting [9]), 544 nM; in test [2] (setting [10]) it was 990 nM; in test [2] (setting [11]) it was 10000 nM; in test [2] (setting [12]), 990 nM. For the same molecule, the EC50 in test [2] (setting [13]) came to 990 nM. Further, the IC50 is 8000 nM in test [3], 45 nM in test [4] and 438 nM in test [6]. Also, in test [5], the “C316Y/1a Fold Resistance” value turned out to be 178 fold.
As to `CS(=O)(=O)N(Cc1sc(Br)nc1C(F)(F)F)c1ccc2c(-c3ncc[nH]3)c(-c3ccccc3)oc2c1` [Example 22, N-{[2-bromo-4-(trifluoromethyl)-1,3-thiazol-5-yl]methyl}-N-[3-(1H-imidazol-2-yl)-2-phenyl-1-benzofuran-6-yl]methanesulfonamide], the concentration for a half-maximal effect (EC50) in test [1] (setting [8]) stood at 866 nM; in test [1] (setting [9]) it was 866 nM; in test [2] (setting [10]) it was 2380 nM; in test [2] (setting [12]), 2380 nM; in test [2] (setting [13]), 2380 nM. Besides, the half-maximal inhibitory concentration (IC50) was determined as 179 nM in test [3], 159 nM in test [4] and 55 nM in test [6]. Further, in test [5], the “C316Y/1a Fold Resistance” value amounted to 1 fold.
For `CS(=O)(=O)N(CC1CCCC1)c1cc2oc(-c3ccc(F)cc3)c(-c3ncc[nH]3)c2cc1C1CC1` [Example 34, N-(cyclopentylmethyl)-N-[5-cyclopropyl-2-(4-fluorophenyl)-3-(1H-imidazol-2-yl)-1-benzofuran-6-yl]methanesulfonamide], the EC50 in test [1] (setting [7]) turned out to be 854 nM; in test [1] (setting [8]), 65 nM; in test [1] (setting [9]), 65 nM; in test [2] (setting [10]), 70 nM; in test [2] (setting [11]), 1290 nM; in test [2] (setting [12]), 70 nM. The concentration giving a half-maximal response (EC50) in test [2] (setting [13]) came out at 70 nM. Besides, the IC50 in test [3] came to 149 nM; in test [4] it was 5 nM; in test [6] it was 22 nM. Also, the “C316Y/1a Fold Resistance” value in test [5] was 30 fold.
Regarding `CS(=O)(=O)N(CC1CCNC1)c1cc2oc(-c3ccc(F)cc3)c(-c3ncc[nH]3)c2cc1C1CC1` (centres unmarked) [Example 51, N-[5-cyclopropyl-2-(4-fluorophenyl)-3-(1H-imidazol-2-yl)-1-benzofuran-6-yl]-N-(pyrrolidin-3-ylmethyl)methanesulfonamide], the half-maximal effective concentration (EC50) in test [1] (setting [7]) stood at 835 nM; in test [1] (setting [8]) it was 194 nM; in test [1] (setting [9]), 194 nM; in test [2] (setting [10]), 1000 nM; in test [2] (setting [11]), 4590 nM; in test [2] (setting [12]), 1000 nM. Also, in test [2] (setting [13]), the half-maximal effective concentration (EC50) was found to be 1000 nM. Also, the IC50 in test [3] is 2050 nM; in test [4], 9.4 nM; in test [6], 74 nM. In addition, the “C316Y/1a Fold Resistance” value in test [5] was 219 fold.
With `CCOC(=O)CN(c1cc2oc(-c3ccc(F)cc3)c(-c3ncc[nH]3)c2cc1C1CC1)S(C)(=O)=O` [Example 33, ethyl N-[5-cyclopropyl-2-(4-fluorophenyl)-3-(1H-imidazol-2-yl)-1-benzofuran-6-yl]-N-(methylsulfonyl)glycinate], the EC50 in test [1] (setting [7]) is 4810 nM; in test [1] (setting [8]), 200 nM; in test [1] (setting [9]) it was 200 nM; in test [2] (setting [10]), 163 nM; in test [2] (setting [11]), 8840 nM; in test [2] (setting [12]), 163 nM. Further, the EC50 in test [2] (setting [13]) came to 163 nM. Also, the IC50 in test [3] was 1900 nM; in test [4], 10.5 nM; in test [6], 152 nM. Further, the “C316Y/1a Fold Resistance” value in test [5] was determined as 181 fold.
Regarding `CS(=O)(=O)N(CCN1CCCC1)c1cc2oc(-c3ccc(F)cc3)c(-c3ncc[nH]3)c2cc1C1CC1` [Example 81, N-[5-cyclopropyl-2-(4-fluorophenyl)-3-(1H-imidazol-2-yl)-1-benzofuran-6-yl]-N-[2-(pyrrolidin-1-yl)ethyl]methanesulfonamide], the EC50 in test [1] (setting [7]) is 129 nM; in test [1] (setting [8]), 36.9 nM; in test [1] (setting [9]) it was 36.9 nM; in test [2] (setting [10]), 205 nM; in test [2] (setting [11]) it was 732 nM; in test [2] (setting [12]), 205 nM. The 50% effective concentration (EC50) in test [2] (setting [13]) was 205 nM. The IC50 in test [3] was 4800 nM; in test [4] it was 31.8 nM; in test [6], 137 nM. Besides, the “C316Y/1a Fold Resistance” value in test [5] came out at 151 fold.
Take `COc1ccc(CN(c2cc3oc(-c4ccc(F)cc4)c(-c4ncc(C)[nH]4)c3cc2C2CC2)S(C)(=O)=O)cc1` [Example 188, N-[5-cyclopropyl-2-(4-fluorophenyl)-3-(5-methyl-1H-imidazol-2-yl)-1-benzofuran-6-yl]-N-(4-methoxybenzyl)methanesulfonamide]: the half-maximal effective concentration (EC50) in test [1] (setting [7]) came out at 2030 nM; in test [1] (setting [8]), 208 nM; in test [1] (setting [9]), 208 nM; in test [2] (setting [10]), 399 nM; in test [2] (setting [11]) it was 8460 nM; in test [2] (setting [12]) it was 399 nM. Moreover, the EC50 in test [2] (setting [13]) was determined as 399 nM. Besides, the results for the concentration for half-maximal inhibition (IC50) in test [3], in test [4] and in test [6] were 224 nM, 15.4 nM and 55 nM, respectively. Besides, the “C316Y/1a Fold Resistance” value in test [5] came to 15 fold.
As to `CS(=O)(=O)N(CCCC(=O)O)c1cc2oc(-c3ccc(F)cc3)c(-c3ncc[nH]3)c2cc1C1CC1` [Example 89, 4-{[5-cyclopropyl-2-(4-fluorophenyl)-3-(1H-imidazol-2-yl)-1-benzofuran-6-yl](methylsulfonyl)amino}butanoic acid], the 50% effective concentration (EC50) in test [1] (setting [7]) turned out to be 376 nM; in test [1] (setting [8]) it was 91.5 nM; in test [1] (setting [9]) it was 91.5 nM; in test [2] (setting [10]), 269 nM; in test [2] (setting [11]), 2440 nM; in test [2] (setting [12]), 269 nM. The EC50 in test [2] (setting [13]) was 269 nM. Also, the half-inhibitory concentration (IC50) in test [3] worked out at 77 nM; in test [4], 5 nM; in test [6], 65 nM. The “C316Y/1a Fold Resistance” value in test [5] came to 15 fold.
In the case of `CS(=O)(=O)N(CCc1ccccc1)c1cc2oc(-c3ccc(F)cc3)c(-c3ncc[nH]3)c2cc1C1CC1` [Example 35, N-[5-cyclopropyl-2-(4-fluorophenyl)-3-(1H-imidazol-2-yl)-1-benzofuran-6-yl]-N-(2-phenylethyl)methanesulfonamide], the EC50 in test [1] (setting [7]) was 1130 nM; in test [1] (setting [8]) it was 51 nM; in test [1] (setting [9]) it was 51 nM; in test [2] (setting [10]) it was 102 nM; in test [2] (setting [11]), 1580 nM; in test [2] (setting [12]), 102 nM. Also, in test [2] (setting [13]), the 50% effective concentration (EC50) was 102 nM. Also, the IC50 is 113 nM in test [3], 4.9 nM in test [4] and 7 nM in test [6]. In addition, the “C316Y/1a Fold Resistance” value in test [5] was 23 fold.
Turning to `CC(C)N(c1cc2oc(-c3ccc(F)cc3)c(-c3ncc[nH]3)c2cc1C1CC1)S(C)(=O)=O` [Example 52, N-[5-cyclopropyl-2-(4-fluorophenyl)-3-(1H-imidazol-2-yl)-1-benzofuran-6-yl]-N-isopropylmethanesulfonamide], the EC50 is 661 nM in test [1] (setting [7]); 114 nM in test [1] (setting [8]); 114 nM in test [1] (setting [9]); 130 nM in test [2] (setting [10]); 1410 nM in test [2] (setting [11]); 130 nM in test [2] (setting [12]). Also, the EC50 in test [2] (setting [13]) came out at 130 nM. Besides, the IC50 in test [3] was 2220 nM; in test [4], 7.7 nM; in test [6], 132 nM. Besides, in test [5], the “C316Y/1a Fold Resistance” value came to 286 fold.
